Source: DBAASP
Values after ≈ are worked out from the molar mass of the structure shown. Blank lines part the entries; values can stand above or below the molecule they belong to.

Legend:
Test in all cases: ≥ marks a high value that may be exact or a test limit, other limits are often not marked, values filed in µg/mL are converted to µM
[1] = test system: Streptococcus gordonii ATCC 10558
[2] = test system: Streptococcus oralis ATCC 9811
[3] = test system: Streptococcus sanguinis ATCC 10556
[4] = test system: Acinetobacter baumannii ATCC 19606
[5] = test system: Acinetobacter baumannii ATCC BAA-1605
[6] = test system: Acinetobacter baumannii ATCC BAA-747
[7] = test system: Acinetobacter baumannii NR-13375
[8] = test system: Acinetobacter baumannii NR-13382
[9] = test system: Acinetobacter baumannii NR-17784
[10] = test system: Acinetobacter baumannii NR-9667
[11] = test system: Pseudomonas aeruginosa 1017
[12] = test system: Pseudomonas aeruginosa 1109
[13] = test system: Pseudomonas aeruginosa 1125
[14] = test system: Pseudomonas aeruginosa 1131
[15] = test system: Pseudomonas aeruginosa ATCC 10145
[16] = test system: Pseudomonas aeruginosa ATCC 15442
[17] = test system: Pseudomonas aeruginosa ATCC 25619
[18] = test system: Pseudomonas aeruginosa ATCC 27853
[19] = test system: Pseudomonas aeruginosa ATCC 35032
[20] = test system: Pseudomonas aeruginosa ATCC 9027
[21] = test system: Pseudomonas aeruginosa ATCC 9721
[22] = test system: Pseudomonas aeruginosa ATCC BAA-1744
[23] = test system: Escherichia coli ATCC 25922
[24] = test system: Klebsiella pneumoniae ATCC 13883
[25] = test system: Pseudomonas aeruginosa PAO1
[26] = test system: Staphylococcus aureus USA 300 LAC
[27] = test system: Staphylococcus aureus USA 300
[28] = test system: Escherichia coli K-12
[29] = test system: Klebsiella pneumoniae
[30] = test system: Pseudomonas aeruginosa PA-W14
[31] = test system: Pseudomonas aeruginosa PA-W1
[32] = test system: Staphylococcus aureus NCTC 8325-4
[33] = test system: Staphylococcus aureus
[34] = test system: Bacillus cereus C737
[35] = test system: Escherichia coli UB1005

- MIC [1]: ≥ 294 µM
- MIC [2]: ≥ 208 µM
- MIC [3]: ≥ 227 µM
Structure (SMILES): CC[C@H](C)[C@H](NC(=O)[C@H](CCC(N)=O)NC(=O)[C@H](CCC(=O)O)NC(=O)[C@H](CCCCN)NC(=O)[C@@H]1CCCN1C(=O)[C@H](CC(C)C)NC(=O)[C@H](CS)NC(=O)[C@H](CO)NC(=O)[C@H](CC(C)C)NC(=O)[C@@H](NC(=O)[C@H](C)NC(=O)[C@H](CS)NC(=O)[C@H](CCCN=C(N)N)NC(=O)CNC(=O)CNC(=O)CNC(=O)CNC(=O)[C@H](Cc1c[nH]c2ccccc12)NC(=O)[C@@H](NC(=O)[C@H](Cc1cnc[nH]1)NC(=O)[C@H](CCSC)NC(=O)CNC(=O)[C@@H]1CCCN1C(=O)[C@H](C)NC(=O)[C@H](CC(=O)O)NC(=O)[C@@H]1CCCN1C(=O)[C@H](CC(C)C)NC(=O)[C@H](CCCCN)NC(=O)[C@@H](N)CCCN=C(N)N)[C@@H](C)O)C(C)C)C(=O)O [RKLPDAPGMHTWGGGGRCAVLSCLPKEQI]

- MIC [4]: 16 µM (≈ 31.5 µg/mL)
- MIC [5]: 16 µM (≈ 31.5 µg/mL)
- MIC [6]: 8 µM (≈ 15.7 µg/mL)
- MIC [7]: 8 µM (≈ 15.7 µg/mL)
- MIC [8]: 16 µM (≈ 31.5 µg/mL)
- MIC [9]: 4 µM (≈ 7.87 µg/mL)
- MIC [10]: ≥ 32 µM
- MIC [11]: ≥ 64 µM
- MIC [12]: 8 µM (≈ 15.7 µg/mL)
- MIC [13]: ≥ 32 µM
- MIC [14]: 16 µM (≈ 31.5 µg/mL)
- MIC [15]: 16 µM (≈ 31.5 µg/mL)
- MIC [16]: 16 µM (≈ 31.5 µg/mL)
- MIC [17]: 4 µM (≈ 7.87 µg/mL)
- MIC [18]: 8 µM (≈ 15.7 µg/mL)
- MIC [19]: 16 µM (≈ 31.5 µg/mL)
- MIC [20]: 4 µM (≈ 7.87 µg/mL)
- MIC [21]: 16 µM (≈ 31.5 µg/mL)
- MIC [22]: 16 µM (≈ 31.5 µg/mL)
Structure (SMILES): CC[C@H](C)[C@H](NC(=O)[C@H](CCCN=C(N)N)NC(=O)[C@H](CCCN=C(N)N)NC(=O)[C@H](CC(C)C)NC(=O)[C@@H](N)Cc1c[nH]c2ccccc12)C(=O)N[C@@H](CCCCN)C(=O)N[C@@H](C)C(=O)N[C@@H](Cc1c[nH]c2ccccc12)C(=O)N[C@@H](CC(C)C)C(=O)N[C@@H](CCCN=C(N)N)C(=O)N[C@@H](CCCN=C(N)N)C(=O)N[C@@H](CCCCN)C(=O)N[C@@H](CCCN=C(N)N)C(=O)N[C@@H](CCCCN)C(=O)O [WLRRIKAWLRRKRK]

The remaining lines, values behind:

Structure (SMILES): CC[C@H](C)[C@H](NC(=O)[C@H](CCCN=C(N)N)NC(=O)[C@H](CCCN=C(N)N)NC(=O)[C@H](CC(C)C)NC(=O)[C@H](CCCN=C(N)N)NC(=O)[C@H](Cc1c[nH]c2ccccc12)NC(=O)[C@@H](N)Cc1c[nH]c2ccccc12)C(=O)N[C@@H](Cc1c[nH]c2ccccc12)C(N)=O [WWRLRRIW]
- MIC [23]: 25 µM (≈ 31.8 µg/mL)
- MIC [24]: 25 µM (≈ 31.8 µg/mL)
- MIC [25]: 12.5 µM (≈ 15.9 µg/mL)
- MIC [26]: 12.5 µM (≈ 15.9 µg/mL)
- MIC [27]: 12.5 µM (≈ 15.9 µg/mL)

Structure (SMILES): NCCCC[C@H](NC(=O)[C@H](Cc1c[nH]c2ccccc12)NC(=O)[C@H](Cc1c[nH]c2ccccc12)NC(=O)[C@H](CCCCN)NC(=O)[C@H](CCCCN)NC(=O)[C@H](Cc1c[nH]c2ccccc12)NC(=O)[C@H](Cc1c[nH]c2ccccc12)NC(=O)[C@H](CCCCN)NC(=O)[C@H](CCCCN)NC(=O)[C@@H](N)Cc1c[nH]c2ccccc12)C(N)=O [WKKWWKKWWK]
- MIC [28]: 15.6 µM (≈ 24.8 µg/mL)
- MIC [29]: 62.5 µM (≈ 99.3 µg/mL)
- MIC [30]: ≥ 125 µM
- MIC [31]: 31.3 µM (≈ 49.7 µg/mL)
- MIC [25]: 15.6 µM (≈ 24.8 µg/mL)
- MIC [32]: 15.6 µM (≈ 24.8 µg/mL)
- MIC [33]: 15.6 µM (≈ 24.8 µg/mL)

Structure (SMILES): CC[C@H](C)[C@H](NC(=O)[C@H](CC(=O)O)NC(=O)[C@H](Cc1ccccc1)NC(=O)[C@H](CC(C)C)NC(=O)CN)C(=O)N[C@H](C(=O)N[C@@H](CCCCN)C(=O)N[C@@H](CCCCN)C(=O)N[C@H](C(=O)N[C@H](C(=O)NCC(=O)N[C@@H](C)C(=O)N[C@@H](CC(C)C)C(N)=O)C(C)C)C(C)C)C(C)C [GLFDIVKKVVGAL]
- MIC [34]: ≥ 47.1 µM
- MIC [35]: 23.6 µM (≈ 32 µg/mL)
- MIC [25]: > 94.2 µM
- MIC [27]: 11.8 µM (≈ 16 µg/mL)
